From EP4442684A1, “A CLASS OF PYRIMIDINE COMPOUNDS, AND PREPARATION METHOD THEREFOR AND USE THEREOF” (Shanghai Allist Pharmaceuticals Co., Ltd., priority 2021, dated 2023)

System: PC-9-EGFR-Del19-T790M-C797S cells
Assay: proliferation inhibition on PC-9-EGFR-Del19-T790M-C797S cells, sulforhodamine B method (SRB method)
Format: cell-based
Conditions: Homo sapiens, in vitro proliferation inhibition, 72 hours culture, final concentrations 2500 to 0.01nM
Procedure: The in vitro proliferation inhibition activity of the compound on PC-9-EGFR-Del19-T790M-C797Slcells where Del19/T790M/C797S triple mutation exists in exogenously stably overexpressed EGFR protein of human non-small cell lung cancer PC-9 was determined by sulforhodamine B method (SRB method).
Cell source: PC-9-EGFR-Del19-T790M-C797S cells were purchased from Nanjing Cobioer Biosciences Co., Ltd.
PC-9-EGFR-Del19-T790M-C797S cells were cultured in an RPMI1640 complete medium containing puromycin (2µg/ml) and 10% fetal bovine serum. PC-9-EGFR-Del19-T790M-C797S cells in a logarithmic growth phase were taken, seeded in a 96-well plate at a cell density of 5000 cells/135µL complete culture medium/well, placed in a thermostatic incubator containing 5% CO2 at 37°C and cultured for 24 hours to ensure complete anchorage of cells. Each compound was dissolved in dimethyl sulfoxide (DMSO) in advance to prepare a 10mM stock solution, and then the compound was successively diluted with DMSO and the complete culture medium. […]
GraphPad Prism 8.3 software was used for data analysis, and non-linear S-curve regression was used for fitting the data to obtain a dose-effect curve, from which an IC50 value was calculated, and the results are shown in Table 1.

C=CC(=O)Nc1cc(Nc2nccc(-c3cn(C)c4ccccc34)n2)c(OCC(F)(F)F)nc1N(C)CC[N+](C)(C)[O-] [Compound V]
IC50: 564 nM
